Entries after “also recorded” stand apart in the source; their conditions may differ.
How the values were obtained:
adults with NASH [1] = assay: Adverse events, phase 2 trial; type: in vivo, human; conditions: for Dizziness / Dry mouth / Dyspepsia / Fatigue / Gastroesophageal reflux disease / Headache / Nasopharyngitis / Nausea / No. of subjects with at least one AE / Pain in extremity / Somnolence / Total no. of events (AEs) / Abdominal pain / Abdominal pain upper / Arthralgia / Asthenia / Back pain / Constipation / Diarrhea: during treatment
[2] = test system: patients with chronic hepatitis C virus (HCV) infection; conditions: short-term treatment; cited from earlier work
hepatitis C subjects = conditions: human, in vivo; cited from earlier work
adults with NASH [3] = assay: Treatment-emergent grade 3 or 4 laboratory abnormalities, phase 2 trial

For `CC(C)[C@@]1(C(=O)N[C@H]2CC(=O)O[C@]2(O)CF)CC(c2nccc3ccccc23)=NO1` [GS-9450], the Dizziness (adults with NASH [1]; 1 mg (n = 26)) was 2 (8) n (%), the Dry mouth (adults with NASH [1]; 1 mg (n = 26)) was 1 (4) n (%) and the Dyspepsia (adults with NASH [1]; 1 mg (n = 26)) was 2 (8) n (%). For the same compound, the Fatigue (adults with NASH [1]; 1 mg (n = 26)) was 6 (23) n (%), the Gastroesophageal reflux disease (adults with NASH [1]; 1 mg (n = 26)) was 0 n (%) and the Headache (adults with NASH [1]; 1 mg (n = 26)) was 4 (15) n (%). The Nasopharyngitis (adults with NASH [1]; 1 mg (n = 26)) was 2 (8) n (%), the Nausea (adults with NASH [1]; 1 mg (n = 26)) was 3 (12) n (%) and the “No. of subjects with at least one AE” value (adults with NASH [1]; 1 mg (n = 26)) was 20 (77) n (%). For the same compound, the Pain in extremity (adults with NASH [1]; 1 mg (n = 26)) was 1 (4) n (%), the Somnolence (adults with NASH [1]; 1 mg (n = 26)) was 1 (4) n (%) and the “Total no. of events (AEs)” value (adults with NASH [1]; 1 mg (n = 26)) was 62. For the same compound, the “frequency of treatment-emergent AEs during the 4-week on-treatment period” value (“frequency” for short) (adults with NASH [1]; 5 mg) was 85%, the Abdominal pain (adults with NASH [1]; 5 mg (n = 26)) was 2 (8) n (%) and the Abdominal pain upper (adults with NASH [1]; 5 mg (n = 26)) was 1 (4) n (%). The Arthralgia (adults with NASH [1]; 5 mg (n = 26)) was 3 (12) n (%), the Asthenia (adults with NASH [1]; 5 mg (n = 26)) was 1 (4) n (%) and the Back pain (adults with NASH [1]; 5 mg (n = 26)) was 2 (8) n (%). For the same compound, the Constipation (adults with NASH [1]; 5 mg (n = 26)) was 0 n (%), the Diarrhea (adults with NASH [1]; 5 mg (n = 26)) was 6 (23) n (%) and the Dizziness (adults with NASH [1]; 5 mg (n = 26)) was 0 n (%). The Dry mouth (adults with NASH [1]; 5 mg (n = 26)) was 0 n (%), the Dyspepsia (adults with NASH [1]; 5 mg (n = 26)) was 2 (8) n (%) and the Fatigue (adults with NASH [1]; 5 mg (n = 26)) was 5 (19) n (%). For the same compound, the Gastroesophageal reflux disease (adults with NASH [1]; 5 mg (n = 26)) was 0 n (%), the Headache (adults with NASH [1]; 5 mg (n = 26)) was 7 (27) n (%) and the Nasopharyngitis (adults with NASH [1]; 5 mg (n = 26)) was 0 n (%). The Nausea (adults with NASH [1]; 5 mg (n = 26)) was 1 (4) n (%), the “No. of subjects with at least one AE” value (adults with NASH [1]; 5 mg (n = 26)) was 22 (85) n (%) and the Pain in extremity (adults with NASH [1]; 5 mg (n = 26)) was 0 n (%). The Somnolence (adults with NASH [1]; 5 mg (n = 26)) was 2 (8) n (%), the “Total no. of events (AEs)” value (adults with NASH [1]; 5 mg (n = 26)) was 64 and the “frequency” value (adults with NASH [1]; 10 mg) was 75%. The Abdominal pain (adults with NASH [1]; 10 mg (n = 24)) was 1 (4) n (%), the Abdominal pain upper (adults with NASH [1]; 10 mg (n = 24)) was 4 (17) n (%) and the Arthralgia (adults with NASH [1]; 10 mg (n = 24)) was 1 (4) n (%). For the same compound, the Asthenia (adults with NASH [1]; 10 mg (n = 24)) was 1 (4) n (%), the Back pain (adults with NASH [1]; 10 mg (n = 24)) was 0 n (%) and the Constipation (adults with NASH [1]; 10 mg (n = 24)) was 0 n (%). For the same compound, the Diarrhea (adults with NASH [1]; 10 mg (n = 24)) was 6 (25) n (%), the Dizziness (adults with NASH [1]; 10 mg (n = 24)) was 0 n (%) and the Dry mouth (adults with NASH [1]; 10 mg (n = 24)) was 2 (8) n (%). The Dyspepsia (adults with NASH [1]; 10 mg (n = 24)) was 1 (4) n (%), the Fatigue (adults with NASH [1]; 10 mg (n = 24)) was 2 (8) n (%) and the Gastroesophageal reflux disease (adults with NASH [1]; 10 mg (n = 24)) was 0 n (%). The Headache (adults with NASH [1]; 10 mg (n = 24)) was 4 (17) n (%), the Nasopharyngitis (adults with NASH [1]; 10 mg (n = 24)) was 0 n (%) and the Nausea (adults with NASH [1]; 10 mg (n = 24)) was 3 (13) n (%). The “No. of subjects with at least one AE” value (adults with NASH [1]; 10 mg (n = 24)) was 18 (75) n (%), the Pain in extremity (adults with NASH [1]; 10 mg (n = 24)) was 1 (4) n (%) and the Somnolence (adults with NASH [1]; 10 mg (n = 24)) was 0 n (%). The “Total no. of events (AEs)” value (adults with NASH [1]; 10 mg (n = 24)) was 67, the “frequency” value (adults with NASH [1]; 40 mg) was 80% and the Abdominal pain (adults with NASH [1]; 40 mg (n = 25)) was 1 (4) n (%). For the same compound, the Abdominal pain upper (adults with NASH [1]; 40 mg (n = 25)) was 1 (4) n (%), the Arthralgia (adults with NASH [1]; 40 mg (n = 25)) was 3 (12) n (%) and the Asthenia (adults with NASH [1]; 40 mg (n = 25)) was 0 n (%). For the same compound, the Back pain (adults with NASH [1]; 40 mg (n = 25)) was 1 (4) n (%), the Constipation (adults with NASH [1]; 40 mg (n = 25)) was 2 (8) n (%) and the Diarrhea (adults with NASH [1]; 40 mg (n = 25)) was 5 (20) n (%). The Dizziness (adults with NASH [1]; 40 mg (n = 25)) was 2 (8) n (%), the Dry mouth (adults with NASH [1]; 40 mg (n = 25)) was 1 (4) n (%) and the Dyspepsia (adults with NASH [1]; 40 mg (n = 25)) was 1 (4) n (%). For the same compound, the Fatigue (adults with NASH [1]; 40 mg (n = 25)) was 2 (8) n (%), the Gastroesophageal reflux disease (adults with NASH [1]; 40 mg (n = 25)) was 3 (12) n (%) and the Headache (adults with NASH [1]; 40 mg (n = 25)) was 4 (16) n (%). The Nasopharyngitis (adults with NASH [1]; 40 mg (n = 25)) was 2 (8) n (%), the Nausea (adults with NASH [1]; 40 mg (n = 25)) was 3 (12) n (%) and the “No. of subjects with at least one AE” value (adults with NASH [1]; 40 mg (n = 25)) was 20 (80) n (%). The Pain in extremity (adults with NASH [1]; 40 mg (n = 25)) was 2 (8) n (%), the Somnolence (adults with NASH [1]; 40 mg (n = 25)) was 0 n (%) and the “Total no. of events (AEs)” value (adults with NASH [1]; 40 mg (n = 25)) was 60. The “subjects who left the study because of a treatment-related AE” value (adults with NASH [1]; 40 mg, moderate facial flushing from day 1) was “One subject”, the “overall safety and tolerability” value (adults with NASH [1]; 4 weeks, 1-40 mg) was “safe and well tolerated” and the “serious adverse events during the on-treatment period” value (adults with NASH [1]; all GS-9450 doses, 4 weeks) was “No serious adverse events; also recorded: no serious AEs (SAEs)”. The “deaths during the study” value (adults with NASH [1]; all groups) was “no deaths”, the “effect on ALT levels” value [2] was “reductions in alanine aminotransferase (ALT) levels” and the drug-induced liver injury (hepatitis C subjects) was “episodes of drug-induced liver injury attributable to GS-9450 occurred”. For the same compound, the “treatment-emergent grade 3 elevated ALT, subjects” value (adults with NASH [3]; 1 mg, on-treatment) was “one subject”, the “treatment-emergent grade 3 elevated AST, subjects” value (adults with NASH [3]; 5 mg) was “one subject” and the “treatment-emergent grade 3 or 4 elevated serum lipase, subjects” value (adults with NASH [3]; 5 mg) was “one subject”. The “treatment-emergent grade 3 or 4 ALT elevations during dosing” value (adults with NASH [3]; 5, 10, or 40 mg daily, 75 patients) was “No treatment-emergent grade 3 or 4 ALT elevations”.

Source: article PMC3779694 (Hepatology (Baltimore, Md.), 2011)
